Results published in patent US20180289678A1, “PHARMACEUTICAL COMPOSITION, PHARMACEUTICAL DOSAGE FORM, PROCESS FOR THEIR PREPARATION, METHODS FOR TREATING AND USES THEREOF” (Boehringer Ingelheim International GmbH, priority 2009, published 2018).
Where two headings read alike, the source gives them in different places.

Assay: Study .4: 4-week treatment of diabetic patients, once daily, pharmacokinetic parameters
Format: in vivo, human
Settings: for AUCτ,ss,norm Max / AUCτ,ss,norm Median / AUCτ,ss,norm Min / AUCτ,ss,norm gMean: Study .4, steady state, dose-normalized
Description: 5. Pharmacokinetic Parameters
The pharmacokinetic parameters of pharmaceutical compositions and pharmaceutical dosage forms are assessed in healthy volunteer and patient populations. In the studies shown below, the participants fasted on the day of sampling, unless as otherwise stated (see for example study .3). The active substance in the studies below is the compound (I.9), preferably in the crystalline form (I.9X), and the dose of active ingredient is indicated in mg.
For the quantification of plasma concentrations of the active ingredient, 2.7 mL of blood was collected and transferred into an EDTA (ethylendiaminetetraacetic acid)-anticoagulant blood drawing tube. The EDTA-anticoagulated blood samples were centrifuged immediately after collection. Centrifugation lasted for about 10 minutes (at about 2,000×gf to 4,000×gf) at 4-8° C. or within 30 minutes while stored on ice. Concentrations of active substance in EDTA human plasma samples were quantitated using a HPLC/MS/MS method. The assay method comprised a solid phase supported liquid-liquid extraction of human plasma coupled with HPLC/MS/MS determination of the extracted samples. The HPLC/MS/MS assay was validated for the range of 1.11 to 1110 nM in human plasma.
Study .4: 4-week treatment of a diabetic patient population of N=78, once daily administration for 4 weeks. Patients were administered tablets as described in Example 10 (section Examples of formulations).
AUC0-inf:area under the concentration-time curve of the analyte in plasma over the time interval from 0 extrapolated to infinity.
Cmax: maximum concentration of the analyte in plasma.
Tmax: time from dosing to maximum concentration.
AUCT,SS:area under the concentration-time curve of the analyte in plasma over the time interval from 0 to 24 h at steady-state.
Cmax,ss:maximum concentration of the analyte in plasma at steady state over a uniform dosing interval.
tmax,ss:time from dosing to maximum concentration at steady state.

[1] = 10 mg once daily, steady state, Study .4, fasted
[2] = 10 mg single dose, Study .4, fasted
[3] = 25 mg once daily, steady state, Study .4, fasted
[4] = 25 mg single dose, Study .4, fasted

AUCτ,ss Max [1]: 2.6 µM·h | AUCτ,ss Min [1]: 1.35 µM·h | tmax,ss Max [1]: 4.00 h | tmax,ss Min [1]: 0.983 h | Cmax (10 mg once daily, steady state, Study .4, fasted, read-out: Cmax,ss Max): 367 nM | AUC0-inf Max [2]: 2.41 µM·h | AUC0-inf Min [2]: 1.39 µM·h | AUC0-inf,norm Max [2]: 241 nmol·h/L/mg | AUC0-inf,norm Median [2]: 173 nmol·h/L/mg | AUC0-inf,norm Min [2]: 139 nmol·h/L/mg | AUC0-inf,norm gMean [2]: 172 nmol·h/L/mg | tmax Max [2]: 2.50 h | tmax Min [2]: 1.00 h | Cmax (10 mg single dose, Study .4, fasted, read-out: Cmax Max): 796 nM | Cmax (10 mg single dose, Study .4, fasted, read-out: Cmax Min): 205 nM | AUCτ,ss Max [3]: 7.64 µM·h | AUCτ,ss Min [3]: 2.79 µM·h | tmax,ss Max [3]: 3.02 h | tmax,ss Min [3]: 0.750 h | AUC0-inf Max [4]: 7.17 µM·h | AUC0-inf Min [4]: 2.84 µM·h | AUC0-inf,norm Max [4]: 287 nmol·h/L/mg | AUC0-inf,norm Median [4]: 171 nmol·h/L/mg | AUC0-inf,norm Min [4]: 114 nmol·h/L/mg | AUC0-inf,norm gMean [4]: 170 nmol·h/L/mg | tmax Min [4]: 0.750 h | Cmax (25 mg single dose, Study .4, fasted, read-out: Cmax Max): 1030 nM | Cmax (25 mg single dose, Study .4, fasted, read-out: Cmax Min): 496 nM | AUCτ,ss,norm Max (dose 10 mg, plasma): 260 nmol·h/L/mg | AUCτ,ss,norm Median (dose 10 mg, plasma): 184 nmol·h/L/mg | AUCτ,ss,norm Min (dose 10 mg, plasma): 135 nmol·h/L/mg | AUCτ,ss,norm gMean (dose 10 mg, plasma): 185 nmol·h/L/mg | AUCτ,ss,norm Max (dose 25 mg, plasma): 306 nmol·h/L/mg | AUCτ,ss,norm Median (dose 25 mg, plasma): 179 nmol·h/L/mg | AUCτ,ss,norm Min (dose 25 mg, plasma): 112 nmol·h/L/mg | AUCτ,ss,norm gMean (dose 25 mg, plasma): 186 nmol·h/L/mg | AUC (human, plasma, oral, 10 mg, 10 mg once daily, steady state, Study .4, fasted, read-out: AUCτ,ss Mean): 1.87 µM·h | AUC (human, plasma, oral, 10 mg, 10 mg once daily, steady state, Study .4, fasted, read-out: AUCτ,ss Median): 1.84 µM·h | AUC (human, plasma, oral, 10 mg, 10 mg once daily, steady state, Study .4, fasted, read-out: AUCτ,ss gMean): 1.85 µM·h | Cmax (human, plasma, oral, 10 mg, 10 mg once daily, steady state, Study .4, fasted, read-out: Cmax,ss Mean): 259 nM | Cmax (human, plasma, oral, 10 mg, 10 mg once daily, steady state, Study .4, fasted, read-out: Cmax,ss Median): 251 nM | Cmax (human, plasma, oral, 10 mg, 10 mg once daily, steady state, Study .4, fasted, read-out: Cmax,ss gMean): 252 nM | Tmax (human, plasma, oral, 10 mg, 10 mg once daily, steady state, Study .4, fasted, read-out: tmax,ss Mean): 1.72 h | Tmax (human, plasma, oral, 10 mg, 10 mg once daily, steady state, Study .4, fasted, read-out: tmax,ss Median): 1.5 h | Tmax (human, plasma, oral, 10 mg, 10 mg once daily, steady state, Study .4, fasted, read-out: tmax,ss g Mean): 1.61 h | AUC(0-inf) (human, plasma, oral, 10 mg, 10 mg single dose, Study .4, fasted, read-out: AUC0-inf Mean): 1.74 µM·h | AUC(0-inf) (human, plasma, oral, 10 mg, 10 mg single dose, Study .4, fasted, read-out: AUC0-inf Median): 1.73 µM·h | AUC(0-inf) (human, plasma, oral, 10 mg, 10 mg single dose, Study .4, fasted, read-out: AUC0-inf gMean): 1.72 µM·h | Cmax (human, plasma, oral, 10 mg, 10 mg single dose, Study .4, fasted, read-out: Cmax Mean): 309 nM | Cmax (human, plasma, oral, 10 mg, 10 mg single dose, Study .4, fasted, read-out: Cmax Median): 271 nM | Cmax (human, plasma, oral, 10 mg, 10 mg single dose, Study .4, fasted, read-out: Cmax gMean): 291 nM | Tmax (human, plasma, oral, 10 mg, 10 mg single dose, Study .4, fasted, read-out: tmax Mean): 1.5 h | Tmax (human, plasma, oral, 10 mg, 10 mg single dose, Study .4, fasted, read-out: tmax Median): 1.5 h | Tmax (human, plasma, oral, 10 mg, 10 mg single dose, Study .4, fasted, read-out: tmax gMean): 1.44 h | AUC (human, plasma, oral, 25 mg, 25 mg once daily, steady state, Study .4, fasted, read-out: AUCτ,ss Mean): 4.74 µM·h | AUC (human, plasma, oral, 25 mg, 25 mg once daily, steady state, Study .4, fasted, read-out: AUCτ,ss Median): 4.48 µM·h | AUC (human, plasma, oral, 25 mg, 25 mg once daily, steady state, Study .4, fasted, read-out: AUCτ,ss gMean): 4.64 µM·h | Cmax (human, plasma, oral, 25 mg, 25 mg once daily, steady state, Study .4, fasted, read-out: Cmax,ss Mean): 687 nM | Cmax (human, plasma, oral, 25 mg, 25 mg once daily, steady state, Study .4, fasted, read-out: Cmax,ss Median): 671 nM | Cmax (human, plasma, oral, 25 mg, 25 mg once daily, steady state, Study .4, fasted, read-out: Cmax,ss gMean): 676 nM | Tmax (human, plasma, oral, 25 mg, 25 mg once daily, steady state, Study .4, fasted, read-out: tmax,ss Mean): 1.55 h | Tmax (human, plasma, oral, 25 mg, 25 mg once daily, steady state, Study .4, fasted, read-out: tmax,ss Median): 1.5 h | Tmax (human, plasma, oral, 25 mg, 25 mg once daily, steady state, Study .4, fasted, read-out: tmax,ss g Mean): 1.4 h | AUC(0-inf) (human, plasma, oral, 25 mg, 25 mg single dose, Study .4, fasted, read-out: AUC0-inf Mean): 4.34 µM·h | AUC(0-inf) (human, plasma, oral, 25 mg, 25 mg single dose, Study .4, fasted, read-out: AUC0-inf Median): 4.27 µM·h | AUC(0-inf) (human, plasma, oral, 25 mg, 25 mg single dose, Study .4, fasted, read-out: AUC0-inf gMean): 4.24 µM·h | Cmax (human, plasma, oral, 25 mg, 25 mg single dose, Study .4, fasted, read-out: Cmax Mean): 722 nM | Cmax (human, plasma, oral, 25 mg, 25 mg single dose, Study .4, fasted, read-out: Cmax Median): 697 nM | Cmax (human, plasma, oral, 25 mg, 25 mg single dose, Study .4, fasted, read-out: Cmax gMean): 709 nM | Tmax (human, plasma, oral, 25 mg, 25 mg single dose, Study .4, fasted, read-out: tmax Mean): 1.39 h | Tmax (human, plasma, oral, 25 mg, 25 mg single dose, Study .4, fasted, read-out: tmax Median): 1.5 h | Tmax (human, plasma, oral, 25 mg, 25 mg single dose, Study .4, fasted, read-out: tmax gMean): 1.33 h
SMILES: OC[C@H]1O[C@@H](c2ccc(Cl)c(Cc3ccc(O[C@H]4CCOC4)cc3)c2)[C@H](O)[C@@H](O)[C@@H]1O [Compound (I.9), 1-chloro-4-(β-D-glucopyranos-1-yl)-2-[4-((S)-tetrahydrofuran-3-yloxy)-benzyl]-benzene]
